From PubChem BioAssay (NCI)
Where “and” joins values, the source holds several entries; their conditions need not be identical. Equal entries are not always repeated.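 1) Cells in 96-well plates. 2) Compound, 48 h, 5 concentrations. 3) Linear interpolation between surrounding doses. 4) Unreached endpoint = highest concentration. Abbreviation: GI50, concentration required for 50% inhibition of growth. TGI marks complete inhibition of growth.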

Tests used:
Assay in all cases: NCI anticancer screen, dose series, 48 h
MDA-N = system: MDA-N
SNB-75 CNS = system: SNB-75 CNS
NCI-H23 lung = system: NCI-H23 lung
OVCAR-4 ovarian = system: OVCAR-4 ovarian
SK-MEL-5 melanoma = system: SK-MEL-5 melanoma
ACHN renal = system: ACHN renal
MOLT-4 leukemia = system: MOLT-4 leukemia
SN12C renal = system: SN12C renal
HT29 colon = system: HT29 colon
786-0 renal = system: 786-0 renal
OVCAR-5 ovarian = system: OVCAR-5 ovarian
HOP-92 NSCLC = system: HOP-92 NSCLC
RPMI-8226 leukemia = system: RPMI-8226 leukemia
MCF7 breast = system: MCF7 breast
OVCAR-8 ovarian = system: OVCAR-8 ovarian
MDA-MB-231 breast = system: MDA-MB-231 breast
HCT-15 colon = system: HCT-15 colon
UO-31 renal = system: UO-31 renal
SW-620 colon = system: SW-620 colon

Row | Structure (SMILES) | TGI (MDA-N) [µM] | TGI (SNB-75 CNS) [µM] | TGI (NCI-H23 lung) [µM] | TGI (OVCAR-4 ovarian) [µM] | TGI (SK-MEL-5 melanoma) [µM] | TGI (ACHN renal) [µM] | TGI (MOLT-4 leukemia) [µM] | TGI (SN12C renal) [µM] | TGI (HT29 colon) [µM] | TGI (786-0 renal) [µM] | TGI (OVCAR-5 ovarian) [µM] | TGI (HOP-92 NSCLC) [µM] | TGI (RPMI-8226 leukemia) [µM] | TGI (MCF7 breast) [µM] | TGI (OVCAR-8 ovarian) [µM] | TGI (MDA-MB-231 breast) [µM] | TGI (HCT-15 colon) [µM] | TGI (UO-31 renal) [µM] | TGI (SW-620 colon) [µM] | GI50 (SNB-75 CNS)
1 | c1cc(-c2ncc(-c3ccc4c(c3)CCCO4)o2)ccn1 | 23.1 | 53.5 | 52.2 | > 100 | 21.2 | > 100 | 17.3 | > 100 | 32 | > 100 | > 100 | 92.5 | 30.4 | 80.9 | 94.9 | > 100 | 69.7 | > 100 | – | –
2 | N#CC(NNC(=O)Cc1ccccc1)c1ccccc1O (stereo not given) | > 100 | 85.6 | 76.4 | > 100 | > 72.2 | 43.8 | > 100 | > 100 | > 92.6 | 72.5 | > 90.9 | > 92.1 | > 100 | > 89.5 | 99.2 | > 72 | > 100 | 25.4 | > 100 | –
3 | Cc1cccc(/C=N/NC(=S)NCCc2ccccn2)n1 | > 100 | 75 | > 100 | > 100 | > 100 | > 74.5 | > 100 | > 100 | > 100 | > 100 | > 100 | > 100 | > 93 | > 100 | > 100 | > 100 | > 100 | 64.2 | > 100 | –
4 | CCN(CC)c1ccc2cc(-c3nnc(-c4ccccc4)o3)c(=O)oc2c1 | > 100 | 69 | > 100 | > 100 | > 100 | > 100 | – | > 100 | > 100 | > 82.1 | > 100 | > 100 | > 100 | > 100 | 98.4 | > 77.9 | > 100 | > 100 | > 100 | –
5 | C=CCNC1=C2C[C@@H](C)C[C@@H](OC)[C@@H](OC(=O)CCCN)[C@H](C)/C=C(\C)[C@@H](OC(N)=O)[C@H](OC)/C=C\C=C(/C)C(=O)NC(=CC1=O)C2=O | 28.4 | 22.2 | 29.6 | 48.4 | 33.7 | 38.9 | 40.2 | 44.2 | 21.4 | 42.2 | 31.8 | 29.3 | 46.9 | 19.4 | 42.5 | 33.5 | 41.2 | 34.2 | > 60 | –
6 | NC(CCC(=O)NC(CSC(=O)N(O)c1ccc(Br)cc1)C(=O)NCC(=O)O)C(=O)O (stereo not given) | > 50 | > 100 | > 100 | > 100 | > 100 | > 100 | > 100 | > 100 | > 100 | > 100 | > 100 | > 100 | > 100 | > 50 | > 100 | > 50 | > 100 | > 100 | > 100 | 62.3 µM and 7.52 µM
7 | COc1ccc(CCNC2=CC(=O)c3ncccc3C2=O)cc1OC | 2.45 | 2.13 | 2.58 | 16.7 | 0.793 | 19.8 | 23.7 | 3.59 | 4.73 | 21.2 | 6.63 | 35.8 | > 43 | 3.01 | 17.2 | 3.72 | 5.09 | 13.1 | 5.54 | –
8 | COn1cc(C=O)c2ccccc21 | 62.7 | > 95.1 | > 100 | > 100 | > 100 | > 100 | > 100 | > 100 | > 100 | > 100 | > 100 | > 100 | > 100 | > 100 | > 100 | > 100 | > 100 | > 100 | > 100 | –
9 | O=C1NC(=O)C(c2c[nH]c3cc(Br)ccc23)=C1c1cn(C(c2ccccc2)(c2ccccc2)c2ccccc2)cn1 | 27.8 | 48.8 | 25.3 | > 100 | 22.9 | > 100 | 23.5 | 31.8 | 27.1 | 23.2 | 39 | 30.3 | 36.8 | 40.4 | 36.5 | 21.4 | 37.6 | 31.9 | > 100 | –
10 | COc1cccc(OC)c1/C=C1\OC(=O)c2cccc(OC)c21 | 3.32 | 17.9 | > 100 | > 100 | > 100 | > 100 | > 100 | > 100 | > 100 | > 100 | > 100 | > 63 | > 100 | > 100 | > 100 | > 100 | > 100 | > 100 | > 100 | –
11 | CSC1=C(SC)SC(=C2SC3=C(SC(=C4SCCS4)S3)S2)S1 | > 100 | > 100 | > 100 | > 100 | > 100 | > 100 | > 100 | > 100 | > 100 | > 100 | > 100 | > 100 | > 100 | > 100 | > 100 | > 100 | > 100 | > 100 | > 100 | –
12 | O=C(NCCCNC(=O)c1ccc2c(O)c(O)ccc2c1)c1ccc2c(O)c(O)ccc2c1 | 41.4 | 42.5 | 52.8 | > 100 | 46.9 | 55.9 | 52.3 | 52.2 | > 64.8 | 57.9 | > 74.4 | > 100 | > 100 | > 100 | 99.1 | > 73.4 | > 72.5 | 65.7 | > 62.2 | –
13 | CC1(C)OCC2OC3(c4nc(C#N)c(N)o4)OC(C)(C)OC3C2O1 (stereo not given) | > 100 | > 100 | > 100 | > 100 | > 100 | > 100 | > 100 | > 100 | > 100 | > 100 | > 100 | > 100 | > 100 | > 100 | > 100 | > 100 | > 100 | > 100 | > 100 | –
14 | O=c1cc(-c2ccccc2)[nH]c2cc3c(cc12)OCO3 | > 100 | 43.3 | > 28.6 | > 100 | 51.3 | > 100 | > 100 | > 100 | > 46.4 | > 93 | > 100 | > 56.5 | > 80 | > 100 | > 100 | > 100 | > 100 | > 100 | > 100 | –
15 | COC(=O)C1=C(C)NC(C)=C(C(=O)OC)C1c1ccc(/[N+]([O-])=C/c2ccccc2)cc1 | > 100 | > 100 | > 100 | 32.6 | > 100 | 32.7 | 71.5 | > 100 | > 100 | 33.3 | > 100 | 35.3 | > 100 | 30.4 | 46.2 | > 100 | > 100 | > 100 | 35.5 | –
16 | O=C1/C(=C\c2ccc([N+](=O)[O-])o2)SC2N=C(COc3ccc(Cl)cc3)NN12 (stereo not given) | 14.3 | 29.7 | 35 | 3.43 | 27.1 | 3.67 | > 100 | 29.6 | 44.4 | 13.7 | 47.5 | 4.49 | > 100 | 4.8 | 10.2 | 15.9 | 4.77 | 23 | 9.92 | –
17 | O=C(C(=O)N1CCc2ccccc21)c1c[nH]c2ccccc12 | > 10 | > 10 | > 10 | > 10 | > 10 | > 10 | > 10 | > 10 | > 10 | > 10 | > 10 | > 10 | > 10 | > 10 | > 10 | > 10 | > 10 | > 10 | > 10 | –
18 | COc1ccc2c(c1)CCc1c-2[nH]c2ccc(OC)cc12 | > 100 | > 100 | > 100 | > 100 | > 100 | > 100 | > 100 | > 100 | > 100 | > 100 | > 100 | > 100 | > 100 | > 100 | > 100 | > 100 | > 100 | > 100 | > 100 | –
19 | C/C(=N\Nc1cc(CN2CCCC2)c(-c2ccc(Cl)cc2)nn1)C(=O)O | > 100 | > 100 | > 100 | > 100 | > 100 | > 100 | > 100 | > 100 | > 100 | > 100 | > 100 | > 100 | > 100 | > 100 | > 100 | > 100 | > 100 | > 100 | > 100 | –
